# Results published in paper PMC7159882, “Polyunsaturated fatty acid analogues differentially affect cardiac NaV, CaV, and KV channels through unique mechanisms” (eLife, 2020).
# Experiments:
# Cav1.2/β3/α2δ = target: T1, Cav1.2/β3/α2δ (Homo sapiens, UniProt Q13936); experiment: Two-electrode voltage clamp of Cav1.2/β3/α2δ expressed in Xenopus oocytes (Ba2+ as charge carrier); type: cell-based; conditions: for ICa I/I0: relative current at 0 mV
# T1 construct: expressed in transfected cells; host or cells: Xenopus laevis oocytes (cRNA injection, Cav1.2:β3:α2δ 2:1:1 by weight)
# Method: (§1) Molecular Biology cRNA encoding Kv7.1 (UniProt: P51787), KCNE1 (UniProt: P15382.1), Nav1.5 (UniProt: Q14524.1), Nav β1 (UniProt: […]), Nav β3 (UniProt: […]), Cav1.2 (GenBank: CAA84346), Cav β3 (Uniprot: P54286), Cav β2 (Uniprot: P54288), and Cav α2δ (Uniprot: P13806) were transcribed using the mMessage mMachine T7 kit (Ambion). 50 ng of cRNA was injected into defolliculated Xenopus laevis oocytes (Ecocyte, Austin, TX): For Kv7.1/KCNE1 channel expression, we injected a 3:1, weight:weight (Kv7.1:KCNE1) cRNA ratio. For Nav1.5 channel expression, we injected a 2:1, weight:weight (Nav1.5:β1) cRNA ratio. For Cav1.2 channel expression, we injected a 2:1:1, weight:weight (Cav1.2:β3:α2δ) cRNA ratio. The exact stoichiometry for channel macromolecular complexes, including α -subunits and auxiliary subunits is not clear for many ion channels. For example, there have been multiple reported stoichiometries for Kv7.1:KCNE1 determined in heterologous expression systems with some groups reporting flexible stoichiometry of 4 Kv7.1: 1–4 KCNE1 and others reporting a fixed stoichiometry of 4 Kv7.1: 2 KCNE1 ([Murray et al., 2016]; [Nakajo et al., 2010]). The ratios of cRNA of α- and auxiliary subunits that we injected in Xenopus laevis oocytes are such that all α-subunits are assumed to be in complex with auxiliary subunits. This allows a more homogenous population of ion channels with auxiliary subunits. One caveat to expressing ion channels as macromolecular complexes is that there are many other auxiliary subunits that could associate with the channel α -subunit that are present in cardiomyocytes and have the potential to alter PUFA-induced effects, but that are not being co-expressed in our experiments. In this work, we are co-expressing some of the auxiliary subunits that have been primarily reported to associate with their respective α -subunits in cardiomyocytes. Following cRNA injection, cells were incubated for 72–96 hr in standard ND96 solution (96 mM NaCl, 2 mM KCl, 1 mM MgCl2, 1.8 mM CaCl2, 5 mM HEPES; pH = 7.5) containing 1 mM pyruvate at 16°C prior to electrophysiological recordings.
# (§2) Xenopus laevis oocytes were recorded in the two-electrode voltage clamp (TEVC) configuration. Recording pipettes were filled with 3 M KCl. The recording chamber was filled with ND96 (96 mM NaCl, 2 mM KCl, 1 mM MgCl2, 1.8 mM CaCl2, 5 mM HEPES; pH 7.5). For Cav1.2/β3/α2δ channel recordings, Xenopus oocytes were injected with 50 nl of 100 mM EGTA and incubated at 10°C for 30 min prior to electrophysiological recordings in order to sequester cytosolic calcium. In addition, Cav1.2/β3/α2δ channel recordings were done in Ca^2+-free solutions, using Ba^2+ as the charge carrier, to prevent calcium-dependent inactivation of Cav1.2/β3/α2δ channels. Calcium-dependent inactivation was not studied in this work, due to the presence of large calcium-activated chloride currents present in Xenopus laevis oocytes. PUFAs were obtained from Cayman Chemical (Ann Arbor, MI.) or synthesized in house (Linköping, Sweden) through methods previously described ([Bohannon et al., 2020]) and kept at −20 °C as 100 mM stock solutions in ethanol. Serial dilutions of the different PUFAs were prepared from stocks to make 0.2 μM, 0.7 μM, 2 μM, 7 μM, and 20 μM concentrations in ND96 solutions (pH = 7.5). PUFAs were perfused into the recording chamber using the Rainin Dynamax Peristaltic Pump (Model RP-1) (Rainin Instrument Co., Oakland, CA. USA).
# (§3) Electrophysiological recordings were obtained using Clampex 10.3 software (Axon, pClamp, Molecular Devices). To measure Kv7.1/KCNE1 currents we apply PUFAs as the membrane potential is stepped every 30 s from −80 mV to 0 mV for 5 s before stepping to −40 mV and back to −80 mV to ensure that the PUFA effects on the current at 0 mV reached steady state. A voltage-step protocol was used to measure the current vs. voltage (I-V) relationship before PUFA application and after the PUFA effects had reached steady state for each concentration of PUFA. […]
# Nav1.5/β1 = target: T2, Nav1.5/β1 (Homo sapiens, UniProt Q14524); experiment: Two-electrode voltage clamp of Nav1.5/β1 expressed in Xenopus oocytes; type: cell-based; conditions: for INa I/I0: relative current at 0 mV
# T2 construct: Nav1.5 (UniProt: Q14524.1); expressed in transfected cells; host or cells: Xenopus laevis oocytes (cRNA injection, Nav1.5:β1 2:1 by weight)
# Method: as §1, §2, §3
# Cav1.2/β2/α2δ = target: T3, Cav1.2/β2/α2δ (Homo sapiens, UniProt Q13936); experiment: Two-electrode voltage clamp of Cav1.2/β2/α2δ expressed in Xenopus oocytes; type: cell-based; conditions: co-expression with β2 subunit instead of β3
# T3 construct: expressed in transfected cells; host or cells: Xenopus laevis oocytes (cRNA injection; no ratio printed for the β2 combination)
# Method: Molecular Biology cRNA encoding Kv7.1 (UniProt: P51787), KCNE1 (UniProt: P15382.1), Nav1.5 (UniProt: Q14524.1), Nav β1 (UniProt: […]), Nav β3 (UniProt: […]), Cav1.2 (GenBank: CAA84346), Cav β3 (Uniprot: P54286), Cav β2 (Uniprot: P54288), and Cav α2δ (Uniprot: P13806) were transcribed using the mMessage mMachine T7 kit (Ambion). 50 ng of cRNA was injected into defolliculated Xenopus laevis oocytes (Ecocyte, Austin, TX): For Kv7.1/KCNE1 channel expression, we injected a 3:1, weight:weight (Kv7.1:KCNE1) cRNA ratio. For Nav1.5 channel expression, we injected a 2:1, weight:weight (Nav1.5:β1) cRNA ratio. For Cav1.2 channel expression, we injected a 2:1:1, weight:weight (Cav1.2:β3:α2δ) cRNA ratio. The exact stoichiometry for channel macromolecular complexes, including α -subunits and auxiliary subunits is not clear for many ion channels. For example, there have been multiple reported stoichiometries for Kv7.1:KCNE1 determined in heterologous expression systems with some groups reporting flexible stoichiometry of 4 Kv7.1: 1–4 KCNE1 and others reporting a fixed stoichiometry of 4 Kv7.1: 2 KCNE1 ([Murray et al., 2016]; [Nakajo et al., 2010]). […]
# Xenopus laevis oocytes were recorded in the two-electrode voltage clamp (TEVC) configuration. […]
# Herg channels = tested on: Herg channels; parameters: method as in B.H. Bentzen and H. Duff, unpublished data; conditions: up to 10 μM; heterologous systems; ref B.H. Bentzen and H. Duff, unpublished data; cited from earlier work
# T2 sequence (Q14524 whole entry): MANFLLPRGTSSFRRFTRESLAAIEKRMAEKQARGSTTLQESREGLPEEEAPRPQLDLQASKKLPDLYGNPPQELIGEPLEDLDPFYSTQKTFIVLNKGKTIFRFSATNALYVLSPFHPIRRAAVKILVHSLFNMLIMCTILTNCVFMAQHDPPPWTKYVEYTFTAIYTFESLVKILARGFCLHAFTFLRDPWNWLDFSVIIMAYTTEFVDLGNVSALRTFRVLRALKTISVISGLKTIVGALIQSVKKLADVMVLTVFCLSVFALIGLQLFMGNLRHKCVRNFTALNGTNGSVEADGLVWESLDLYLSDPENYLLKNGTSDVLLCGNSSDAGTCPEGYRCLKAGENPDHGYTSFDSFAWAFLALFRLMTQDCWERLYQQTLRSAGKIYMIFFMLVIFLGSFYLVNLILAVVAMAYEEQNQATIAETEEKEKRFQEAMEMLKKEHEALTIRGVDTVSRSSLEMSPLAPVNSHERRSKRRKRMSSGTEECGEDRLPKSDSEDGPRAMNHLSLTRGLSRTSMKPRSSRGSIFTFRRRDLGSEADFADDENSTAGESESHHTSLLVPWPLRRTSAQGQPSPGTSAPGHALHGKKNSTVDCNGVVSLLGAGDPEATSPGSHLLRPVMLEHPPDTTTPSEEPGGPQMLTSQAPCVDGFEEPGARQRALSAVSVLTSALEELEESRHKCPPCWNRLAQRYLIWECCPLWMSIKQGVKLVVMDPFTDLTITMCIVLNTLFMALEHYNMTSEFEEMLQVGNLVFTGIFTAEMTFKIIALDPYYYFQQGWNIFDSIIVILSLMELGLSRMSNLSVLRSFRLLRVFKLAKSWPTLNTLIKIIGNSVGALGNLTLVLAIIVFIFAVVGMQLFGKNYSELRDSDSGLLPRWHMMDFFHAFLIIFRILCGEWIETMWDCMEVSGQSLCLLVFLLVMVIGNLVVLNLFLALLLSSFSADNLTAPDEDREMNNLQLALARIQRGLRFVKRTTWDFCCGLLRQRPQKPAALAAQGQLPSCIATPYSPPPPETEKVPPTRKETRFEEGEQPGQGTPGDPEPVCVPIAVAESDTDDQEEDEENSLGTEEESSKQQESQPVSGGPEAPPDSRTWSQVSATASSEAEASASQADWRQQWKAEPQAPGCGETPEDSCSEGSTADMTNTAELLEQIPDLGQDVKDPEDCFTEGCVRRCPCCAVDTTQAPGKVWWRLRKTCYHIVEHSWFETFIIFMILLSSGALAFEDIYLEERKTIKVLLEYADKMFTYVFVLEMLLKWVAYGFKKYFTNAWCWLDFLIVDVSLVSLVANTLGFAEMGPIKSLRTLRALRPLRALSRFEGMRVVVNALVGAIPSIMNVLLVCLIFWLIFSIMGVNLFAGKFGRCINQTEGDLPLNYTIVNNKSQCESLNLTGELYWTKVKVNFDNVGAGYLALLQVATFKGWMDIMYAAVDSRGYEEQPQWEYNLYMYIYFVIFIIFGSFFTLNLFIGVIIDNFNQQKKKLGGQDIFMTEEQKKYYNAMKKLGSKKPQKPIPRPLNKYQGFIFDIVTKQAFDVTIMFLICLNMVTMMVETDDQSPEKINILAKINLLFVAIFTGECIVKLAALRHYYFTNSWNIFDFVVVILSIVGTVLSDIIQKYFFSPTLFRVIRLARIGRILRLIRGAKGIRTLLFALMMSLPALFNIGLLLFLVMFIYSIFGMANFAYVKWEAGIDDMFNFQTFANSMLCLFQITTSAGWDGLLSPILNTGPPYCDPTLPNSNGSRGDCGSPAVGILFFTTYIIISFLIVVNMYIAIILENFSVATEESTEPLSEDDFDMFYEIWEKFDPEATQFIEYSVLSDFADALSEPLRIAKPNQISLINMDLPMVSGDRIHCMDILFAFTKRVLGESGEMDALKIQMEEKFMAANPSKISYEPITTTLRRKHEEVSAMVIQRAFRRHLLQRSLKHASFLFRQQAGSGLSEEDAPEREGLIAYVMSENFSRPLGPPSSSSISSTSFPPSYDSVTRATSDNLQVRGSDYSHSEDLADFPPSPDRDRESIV
# T2 sequence (Q07699 19-218 partner): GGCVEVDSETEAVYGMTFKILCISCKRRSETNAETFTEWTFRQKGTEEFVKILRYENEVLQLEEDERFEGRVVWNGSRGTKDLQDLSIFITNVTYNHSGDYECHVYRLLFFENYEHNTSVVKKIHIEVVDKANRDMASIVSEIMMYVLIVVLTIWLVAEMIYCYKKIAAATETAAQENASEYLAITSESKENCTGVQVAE
Compound,Gmax/Gmax0 (Cav1.2/β3/α2δ; 0.2 μM),ΔV0.5 (voltage dependence of inactivation) (Cav1.2/β3/α2δ; 0.2 μM),ICa I/I0 (Cav1.2/β3/α2δ; 0.2 μM),Gmax/Gmax0 (Cav1.2/β3/α2δ; 0.7 μM),ΔV0.5 (voltage dependence of inactivation) (Cav1.2/β3/α2δ; 0.7 μM),ICa I/I0 (Cav1.2/β3/α2δ; 0.7 μM),Gmax/Gmax0 (Cav1.2/β3/α2δ; 2 μM),ΔV0.5 (voltage dependence of inactivation) (Cav1.2/β3/α2δ; 2 μM),ICa I/I0 (Cav1.2/β3/α2δ; 2 μM),Gmax/Gmax0 (Cav1.2/β3/α2δ; 7 μM),ΔV0.5 (voltage dependence of inactivation) (Cav1.2/β3/α2δ; 7 μM),Gmax/Gmax0 (Cav1.2/β3/α2δ; 20 μM),ΔV0.5 (voltage dependence of inactivation) (Cav1.2/β3/α2δ; 20 μM),ICa I/I0 (Cav1.2/β3/α2δ; 20 μM),Gmax/Gmax0 (Nav1.5/β1; 0.2 μM),ΔV0.5 (voltage dependence of inactivation) (Nav1.5/β1; 0.2 μM),INa I/I0 (Nav1.5/β1; 0.2 μM),Gmax/Gmax0 (Nav1.5/β1; 0.7 μM),ΔV0.5 (voltage dependence of inactivation) (Nav1.5/β1; 0.7 μM),INa I/I0 (Nav1.5/β1; 0.7 μM),other results
CCCCC/C=C\C/C=C\CCCCCCCC(=O)NCC(=O)O [Lin-glycine],1.1 ± 0.03,0.1 ± 1.7 mV,0.9 ± 0.1,1.1 ± 0.04,-0.7 ± 1.8 mV,0.9 ± 0.1,1.2 ± 0.1,-2.9 ± 1.4 mV,0.9 ± 0.1,1.0 ± 0.1,−3.0 ± 1.6 mV,1.0 ± 0.1,-3.7 ± 1.5 mV,0.7 ± 0.1,1.0 ± 0.03,-0.2 ± 0.06 mV,1.0 ± 0.03,1.0 ± 0.05,-1.2 ± 0.3 mV,1.0 ± 0.04,"ΔV0.5 (voltage dependence of inactivation) (Cav1.2/β3/α2δ; 7 μM, listed as lin-glycine): -3.0 ± 1.6 mV; ICa I/I0 (Cav1.2/β3/α2δ; 7 μM, listed as lin-glycine): 0.8 ± 0.1; Gmax/Gmax0 (Nav1.5/β1; 2 μM): 0.9 ± 0.06; ΔV0.5 (voltage dependence of inactivation) (Nav1.5/β1; 2 μM): -4.3 ± 0.8 mV; INa I/I0 (Nav1.5/β1; 2 μM): 0.9 ± 0.1; Gmax/Gmax0 (Nav1.5/β1; 7 μM): 0.5 ± 0.1; ΔV0.5 (voltage dependence of inactivation) (Nav1.5/β1; 7 μM): −15.2 ± 2.8 mV; ΔV0.5 (voltage dependence of inactivation) (Nav1.5/β1; 7 μM, listed as lin-glycine): -15.2 ± 2.8 mV; INa I/I0 (Nav1.5/β1; 7 μM): 0.5 ± 0.1 (p=0.02); INa I/I0 (Nav1.5/β1; 7 μM, listed as lin-glycine): 0.5 ± 0.1; Gmax/Gmax0 (Nav1.5/β1; 20 μM): 0.2 ± 0.02; ΔV0.5 (voltage dependence of inactivation) (Nav1.5/β1; 20 μM): -21.7 ± 1.2 mV; INa I/I0 (Nav1.5/β1; 20 μM): 0.3 ± 0.02; response of Cav1.2/β2/α2δ compared with Cav1.2/β3/α2δ (Cav1.2/β2/α2δ): no differences between Cav1.2/β3/α2δ and Cav1.2/β2/α2δ"
"CCCCC/C=C\C/C=C\CCCCCCCC(=O)NCCS(=O)(=O)O [Lin-taurine, Linoleoyl taurine]",1.0 ± 0.02,0.6 ± 0.5 mV,1.0 ± 0.02,0.9 ± 0.02,0.9 ± 0.9 mV,0.9 ± 0.1,0.7 ± 0.05,-0.3 ± 1.8 mV,0.7 ± 0.1,0.6 ± 0.05,−1.9 ± 2.5 mV,0.5 ± 0.04,-1.2 ± 4.4 mV,0.5 ± 0.1,1.0 ± 0.01,-0.3 ± 0.1 mV,1.0 ± 0.01,1.0 ± 0.01,-2.2 ± 0.7 mV,1.0 ± 0.05,"ΔV0.5 (voltage dependence of inactivation) (Cav1.2/β3/α2δ; 7 μM, listed as lin-taurine): -1.9 ± 2.5 mV; ICa I/I0 (Cav1.2/β3/α2δ; 7 μM): 0.6 ± 0.1 (p=0.01); ICa I/I0 (Cav1.2/β3/α2δ; 7 μM, listed as lin-taurine): 0.6 ± 0.1; shift of the voltage dependence of activation (Cav1.2/β3/α2δ; 0.2-20 μM): without shifting the voltage-dependence of Cav1.2/β3/α2δ activation; Gmax/Gmax0 (Nav1.5/β1; 2 μM): 0.9 ± 0.05; ΔV0.5 (voltage dependence of inactivation) (Nav1.5/β1; 2 μM): -8.8 ± 1.7 mV; INa I/I0 (Nav1.5/β1; 2 μM): 0.6 ± 0.07; Gmax/Gmax0 (Nav1.5/β1; 7 μM): 0.5 ± 0.07; ΔV0.5 (voltage dependence of inactivation) (Nav1.5/β1; 7 μM): −23.5 ± 1.9 mV; ΔV0.5 (voltage dependence of inactivation) (Nav1.5/β1; 7 μM, listed as lin-taurine): -23.5 ± 1.9 mV; INa I/I0 (Nav1.5/β1; 7 μM): 0.1 ± 0.02 (p=0.0001); INa I/I0 (Nav1.5/β1; 7 μM, listed as lin-taurine): 0.1 ± 0.02; Gmax/Gmax0 (Nav1.5/β1; 20 μM): 0.3 ± 0.04; ΔV0.5 (voltage dependence of inactivation) (Nav1.5/β1; 20 μM): -34.9 ± 1.5 mV; INa I/I0 (Nav1.5/β1; 20 μM): 0.1 ± 0.01; shift of the voltage dependence of activation (Nav1.5/β1; 0.2-20 μM): no shift in the voltage dependence of activation; response of Cav1.2/β2/α2δ compared with Cav1.2/β3/α2δ (Cav1.2/β2/α2δ): no differences between Cav1.2/β3/α2δ and Cav1.2/β2/α2δ"
"CCCCC/C=C\C/C=C\C/C=C\C/C=C\CCCC(=O)NCCS(=O)(=O)O [N-AT, N-arachidonoyl taurine]",0.9 ± 0.02,0.4 ± 0.3 mV,0.9 ± 0.1,0.9 ± 0.1,0.5 ± 1.0 mV,0.9 ± 0.1,0.8 ± 0.03,0.2 ± 2.2 mV,0.9 ± 0.1,0.7 ± 0.1,0.6 ± 2.0 mV,0.6 ± 0.03,1.4 ± 1.7 mV,0.7 ± 0.1,1.0 ± 0.04,-0.2 ± 0.5 mV,1.0 ± 0.09,1.0 ± 0.06,0.2 ± 1.4 mV,1.0 ± 0.07,Gmax/Gmax0 (Nav1.5/β1; 2 μM): 0.7 ± 0.03; ΔV0.5 (voltage dependence of inactivation) (Nav1.5/β1; 2 μM): -5.2 ± 0.4 mV; INa I/I0 (Nav1.5/β1; 2 μM): 0.7 ± 0.08; Gmax/Gmax0 (Nav1.5/β1; 7 μM): 0.3 ± 0.04; ΔV0.5 (voltage dependence of inactivation) (Nav1.5/β1; 7 μM): –16.7 ± 3.5 mV; Gmax/Gmax0 (Nav1.5/β1; 20 μM): 0.07 ± 0.01; ΔV0.5 (voltage dependence of inactivation) (Nav1.5/β1; 20 μM): -27.5 ± 2.9 mV; INa I/I0 (Nav1.5/β1; 20 μM): 0.1 ± 0.02; effects on currents through Herg channels (Herg channels): neither N-AT nor DHA-glycine up to 10 μM had any significant effects
